Laboratory results published in US20240269139A1, “COMPOUNDS FOR TARGETED PROTEIN DEGRADATION OF KINASES” (DANA-FARBER CANCER INSTITUTE, INC., priority 2020, published 2024).
Where two headings read alike, the source gives them in different places.

What was measured:
CRBN = target: T1, CRBN (Homo sapiens, UniProt Q96SW2); assay: Competitive displacement assay for cellular CRBN engagement (BRD4BD2-GFP reporter, dBET6); format: cell-based, H. sapiens; conditions: 5 hours in presence of dBET6
T1 construct: HEK293T cells stably expressing the BRD4BD2-GFP with mCherry reporter; endogenous in cells; host or cells: HEK293T stably expressing BRD4BD2-GFP / mCherry reporter
Description: HEK293T cells stably expressing the BRD4BD2-GFP with mCherry reporter were seeded at 30-50% confluency in 384-well plates with 50 μL FluoroBrite™ Dulbecco's Modified Eagle's medium (DMEM) media (Thermo Fisher Scientific. A18967) containing 10% fetal bovine serum (FBS) per well a day before compound treatment. Degrader titrations and 100 nM dBET6 or 250 nM AT1 were dispensed using a D300e Digital Dispenser (HP), normalized to 0.5% DMSO, and incubated with cells for 5 hours. Assay plates were imaged using Acumen® (TTP Labtech), as described above.

[1] = tested on: protein kinases in MOLT-4 cells; assay: Whole cell quantitative proteomics in MOLT-4 cells
[2] = target: protein kinases (human kinome) (Homo sapiens, UniProt Q5S007); format: cell-based; conditions: for logFC: LRRK2 (Q5S007)
[3] = target: T2, protein kinases (human kinome) (Homo sapiens, UniProt P42680); format: cell-based; conditions: TEC (P42680), experiment wp107
T2 sequence (P42680 1-631): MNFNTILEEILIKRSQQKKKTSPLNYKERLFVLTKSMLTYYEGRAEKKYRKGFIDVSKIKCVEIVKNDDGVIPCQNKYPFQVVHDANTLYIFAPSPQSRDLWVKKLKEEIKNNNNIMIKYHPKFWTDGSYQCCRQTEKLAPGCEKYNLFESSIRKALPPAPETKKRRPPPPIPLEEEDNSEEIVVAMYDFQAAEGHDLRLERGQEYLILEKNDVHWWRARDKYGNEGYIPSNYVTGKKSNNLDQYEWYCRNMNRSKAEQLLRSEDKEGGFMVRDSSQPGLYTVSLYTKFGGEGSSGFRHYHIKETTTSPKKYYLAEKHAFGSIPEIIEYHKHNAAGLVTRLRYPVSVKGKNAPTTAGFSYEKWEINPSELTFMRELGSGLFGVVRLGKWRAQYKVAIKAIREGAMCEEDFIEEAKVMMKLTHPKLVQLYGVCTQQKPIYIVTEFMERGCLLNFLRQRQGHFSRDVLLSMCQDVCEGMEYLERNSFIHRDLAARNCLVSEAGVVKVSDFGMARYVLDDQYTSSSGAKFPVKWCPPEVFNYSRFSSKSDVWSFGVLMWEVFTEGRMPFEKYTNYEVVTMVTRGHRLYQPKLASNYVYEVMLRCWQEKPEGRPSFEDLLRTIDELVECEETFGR

[4] = target: protein kinases (human kinome) (Homo sapiens, UniProt Q15418); format: cell-based; conditions: experiment wp160, 8 hr
[5] = target: protein kinases (human kinome) (Homo sapiens, UniProt P54819); format: cell-based; conditions: AK2 (P54819)
[6] = target: protein kinases (human kinome) (Homo sapiens, UniProt O94921); format: cell-based

## Cc1ccc(NC(=O)c2cccc(C(F)(F)F)c2)cc1N1Cc2cnc(Nc3ccc(N4CCN(Cc5cn(CCCCCOc6cccc7c6C(=O)N(C6CCC(=O)NC6=O)C7=O)nn5)CC4)nc3)nc2N(C)C1=O (centres unmarked) [DB0646, N-(3-(7-((6-(4-((1-(5-((2-(2,6-Dioxopiperidin-3-yl)-1,3-dioxoisoindolin-4-yl)oxy)pentyl)-1H-1,2,3-triazol-4-yl)methyl)piperazin-1-v)pyridin-3-yl)amino)-1-methyl-2-oxo-1,4-dihydropyrimido[4,5-d]pyrimidin-3(2H)-yl)-4-methylphenyl)-3-(trifluoromethyl)benzamide]
CRBN
  cellular permeability / CRBN engagement: able to permeate the cell membrane and bind to the CRBN E3 ligase
[1]; 1 μM, 5 h
  GCK binding and degradation: bound and degraded
[1]; MOLT-4, 1 μM, 1, 2, 4, 8 and 12 h
  kinase degradation over time: most kinases showed increased degradation over time
[2]; Experiment wp160, 2 hr
  logFC of LRRK2 (Q5S007): −1.181
[2]; experiment wp160, 2 hr
  logFC: −1.181
[2]; experiment wp160, 4 hr
  logFC: −1.307
  logFC of LRRK2 (Q5S007): −1.307
[2]; experiment wp160, 1 hr
  logFC: −1.165
  logFC of LRRK2 (Q5S007): −1.165
[2]; experiment wp160, 8 hr
  logFC: −1.747
  logFC of LRRK2 (Q5S007): −1.747
[3]
  logFC: −0.8282
[3]; direction down
  logFC: −0.8282
[4]; RPS6KA1 (Q15418-1), direction down
  logFC: −0.413
[4]
  logFC RPS6KA1 (Q15418-1): −0.413

## CN(C)C(=O)c1cc2cnc(Nc3ccc(N4CCN(CCCCNC(=O)COc5cccc6c5C(=O)N(C5CCC(=O)NC5=O)C6=O)CC4)cn3)nc2n1C1CCCC1 (centres unmarked) [BSJ.04.132]
[5]; experiment wp084
  logFC: −0.3323

## Cc1ccc(C(=O)Nc2ccc(CN3CCN(CCCOCCOCCOCCNC(=O)COc4cccc5c4C(=O)N(C4CCC(=O)NC4=O)C5=O)CC3)c(C(F)(F)F)c2)cc1C#Cc1cnc2cccnn12 (centres unmarked) [SB1.G.187]
[6]; CDK14 (O94921-1), experiment wp172
  logFC: −1.525
[6]; Experiment wp172
  logFC of CDK14 (O94921-1): −1.525
[5]; experiment wp056
  logFC: −0.3691

## CC(=O)c1c(C)c2cnc(Nc3ccc(N4CCN(CCOCCOCCOCCNC(=O)COc5cccc6c5C(=O)N(C5CCC(=O)NC5=O)C6=O)CC4)cn3)nc2n(C2CCCC2)c1=O (centres unmarked) [BSJ.03.123]
[5]; experiment wp084
  logFC: −0.395
